ChEMBL document CHEMBL6096732 (J Med Chem, 2025)
Calls of active or inactive are those of the source. No cut-off for these calls is given here.

Experiments:
[1] = Toxicity in male C57BL/6 mouse implanted with mouse B16-F10 cells assessed as histopathological changes in kidney at 50 mg/kg, po co-administered with NP-19 as once daily dosage via gavage for 14 days by HandE staining based microscopic analysis; type: organism-based; conditions: in vivo, 336 h, time 14 day
B16-F10 [2] = experiment: Induction of apoptosis in mouse B16-F10 cells assessed as increase in apoptotic cells at 20 uM incubated for 48 hrs by Annexin V-FITC/PI staining based flow cytometric analysis relative to control; type: functional
[3] = VRT (0 to t) in male Sprague-Dawley rat at 2 mg/kg, iv measured after 12 hrs by LC-MS/MS analysis; type: ADME, organism-based; conditions: in vivo
[4] = Half-life in male Sprague-Dawley rat at 20 mg/kg, po measured after 12 hrs by LC-MS/MS analysis; type: ADME, organism-based; conditions: in vivo
[5] = AUC (0 to 12 hrs) in male Sprague-Dawley rat at 20 mg/kg, po measured after 12 hrs by LC-MS/MS analysis; type: ADME, organism-based; conditions: in vivo
B16-F10 [6] = experiment: Effect on acetylated alpha-tubulin expression level in mouse B16-F10 cells at 5 to 20 uM incubated for 24 hrs by Western blot analysis; type: functional, cell-based; conditions: dose 5-20 µM
4T1 [7] = experiment: Antitumor activity against mouse 4T1 cells implanted in female BALB/c mouse model assessed as induction of DNA damage by measuring increase in gamma-H2AX expression in tumor co-administrated orally with olaparib as once daily dose via gavage for 14 days by immunohistochemistry analysis; type: functional, cell-based; conditions: route po, time 14.0 day
Mus musculus [8] = experiment: Immunomodulatory activity in male C57BL/6 mouse model implanted with mouse B16-F10 cells assessed as increase in CD3+ CD4+ T cells in tumor at 50 mg/kg, po administered once daily for 14 days by flow cytometric analysis (reference value: 3.1 %); type: functional; conditions: time 14 day
[9] = AUC (0 to 12 hrs) in male Sprague-Dawley rat at 2 mg/kg, iv measured after 12 hrs by LC-MS/MS analysis; type: ADME, organism-based; conditions: in vivo
Histone deacetylase 1 = Histone deacetylase 1 (Homo sapiens, UniProt Q13547); experiment: Inhibition of recombinant HDAC1 (unknown origin) using Boc-Lys(acetyl)-AMC as substrate preincubated for 1 hr followed by substrate addition and measured after 2 hrs by fluorescence based micro plate reader analysis
B16-F10 [10] = experiment: Cell cycle arrest in mouse B16-F10 cells assessed as decrease in G2/M phase population at 5 to 20 uM incubated for 48 hrs by RNase A/PI staining based flow cytometric analysis; type: functional; conditions: dose 5-20 µM
[11] = AUC (0 to infinity) in male Sprague-Dawley rat at 2 mg/kg, iv measured after 12 hrs by LC-MS/MS analysis; type: ADME, organism-based; conditions: in vivo
[12] = Toxicity in male C57BL/6 mouse implanted with mouse B16-F10 cells assessed as histopathological changes in heart at 50 mg/kg, po co-administered with NP-19 as once daily dosage via gavage for 14 days by HandE staining based microscopic analysis; type: organism-based; conditions: in vivo, 336 h, time 14 day
4T1 [13] = experiment: Antitumor activity against mouse 4T1 cells implanted in female BALB/c mouse model assessed as induction of DNA damage by measuring increase in gamma-H2AX expression in tumor administrated orally as once daily dose via gavage for 14 days by DAPI staining based immunofluorescence analysis; type: functional, cell-based; conditions: route po, time 14.0 day
[14] = AUMC (0 to infinity) in male Sprague-Dawley rat at 2 mg/kg, iv measured after 12 hrs by LC-MS/MS analysis; type: ADME, organism-based; conditions: in vivo
4T1 [15] = experiment: Effect on acetylated H3K56 expression level in mouse 4T1 cells at 5 to 20 uM incubated for 24 hrs by Western blot analysis; type: functional, cell-based; conditions: dose 5-20 µM
4T1 [16] = experiment: Antitumor activity against mouse 4T1 cells implanted in female BALB/c mouse model assessed as decrease in PAPR1 expression in tumor co-administrated orally with olaparib as once daily dose via gavage for 14 days by Western blot analysis; type: functional, cell-based; conditions: route po, time 14.0 day
B16-F10 [17] = experiment: Induction of DNA damage in mouse B16-F10 cells assessed as increase in gamma-H2AX expression at 2 uM incubated for 24 hrs in presence of olaparib by Western blot analysis; type: functional, cell-based
Histone deacetylase 9 = Histone deacetylase 9 (Homo sapiens, UniProt Q9UKV0); experiment: Inhibition of recombinant HDAC9 (unknown origin) using Boc-Lys(trifluoroacetyl)-AMC as substrate preincubated for 1 hr followed by substrate addition and measured after 2 hrs by fluorescence based micro plate reader analysis
[18] = Clearance in male Sprague-Dawley rat at 20 mg/kg, po measured after 12 hrs by LC-MS/MS analysis; type: ADME, organism-based; conditions: in vivo
B16-F10 [19] = experiment: Antitumor activity against mouse B16-F10 cells implanted in male C57BL/6 mouse model assessed as tumor growth inhibition at 50 mg/kg, po administered once daily via gavage for 14 days relative to control; type: functional; conditions: B16-F10, 336 h, time 14 day, read-out: TGI
[20] = Retention time of compound by HPLC analysis; type: physicochemical
4T1 [21] = experiment: Downregulation of PARP1 expression in mouse 4T1 cells at 2 uM incubated for 24 hrs by Western blot analysis; type: functional, cell-based
4T1 [22] = experiment: Antitumor activity against mouse 4T1 cells implanted in female BALB/c mouse model assessed as tumor growth inhibition co-administrated orally with olaparib as once daily dose via gavage for 14 days relative to control; type: functional; conditions: route po; time 14 day
Mus musculus [23] = experiment: Immunomodulatory activity in male C57BL/6 mouse model implanted with mouse B16-F10 cells assessed as increase in CD3+ CD8+ T cells in tumor at 50 mg/kg, po administered once daily for 14 days by flow cytometric analysis (reference value: 3.2 %); type: functional; conditions: time 14 day
Mus musculus [24] = experiment: Effect on acetylated alpha-tubulin level in male C57BL/6 mouse tumor implanted with mouse B16-F10 cells at 50 mg/kg, po administered once daily via gavage for 14 days by Western blot analysis; type: functional, organism-based; conditions: time 14.0 day
Histone deacetylase 2 = Histone deacetylase 2 (Homo sapiens, UniProt Q92769); experiment: Inhibition of recombinant HDAC2 (unknown origin) using Boc-Lys(acetyl)-AMC as substrate preincubated for 1 hr followed by substrate addition and measured after 2 hrs by fluorescence based micro plate reader analysis
[25] = biological target: Programmed cell death 1 ligand 1 (Mus musculus) (UniProt Q9EP73); experiment: Induction of PD-L1 degradation in mouse B16-F10 cells assessed as decrease in PD-L1 protein level at 2 uM measured after 24 hrs in presence of CA-074 by Western blot analysis; type: cell-based
[26] = Toxicity in female BALB/c mouse model implanted with mouse 4T1 cells assessed as effect on body weight administrated orally as once daily dose via gavage for 14 days; conditions: in vivo, po, 336 h, time 14 day
[27] = VRT (0 to infinity) in male Sprague-Dawley rat at 20 mg/kg, po measured after 12 hrs by LC-MS/MS analysis; type: ADME, organism-based; conditions: in vivo
Mus musculus [28] = experiment: In vivo induction of PD-L1 degradation in male C57BL/6 mouse model implanted with mouse B16-F10 cells assessed as decrease in PD-L1 protein expression in tumor at 50 mg/kg, po administered once daily via gavage for 14 days by Western blot analysis; type: functional, organism-based; conditions: time 14.0 day
[29] = Cmax in male Sprague-Dawley rat at 20 mg/kg, po measured after 12 hrs by LC-MS/MS analysis; type: ADME, organism-based; conditions: in vivo

Chain of Histone deacetylase 9 (Q9UKV0 whole entry): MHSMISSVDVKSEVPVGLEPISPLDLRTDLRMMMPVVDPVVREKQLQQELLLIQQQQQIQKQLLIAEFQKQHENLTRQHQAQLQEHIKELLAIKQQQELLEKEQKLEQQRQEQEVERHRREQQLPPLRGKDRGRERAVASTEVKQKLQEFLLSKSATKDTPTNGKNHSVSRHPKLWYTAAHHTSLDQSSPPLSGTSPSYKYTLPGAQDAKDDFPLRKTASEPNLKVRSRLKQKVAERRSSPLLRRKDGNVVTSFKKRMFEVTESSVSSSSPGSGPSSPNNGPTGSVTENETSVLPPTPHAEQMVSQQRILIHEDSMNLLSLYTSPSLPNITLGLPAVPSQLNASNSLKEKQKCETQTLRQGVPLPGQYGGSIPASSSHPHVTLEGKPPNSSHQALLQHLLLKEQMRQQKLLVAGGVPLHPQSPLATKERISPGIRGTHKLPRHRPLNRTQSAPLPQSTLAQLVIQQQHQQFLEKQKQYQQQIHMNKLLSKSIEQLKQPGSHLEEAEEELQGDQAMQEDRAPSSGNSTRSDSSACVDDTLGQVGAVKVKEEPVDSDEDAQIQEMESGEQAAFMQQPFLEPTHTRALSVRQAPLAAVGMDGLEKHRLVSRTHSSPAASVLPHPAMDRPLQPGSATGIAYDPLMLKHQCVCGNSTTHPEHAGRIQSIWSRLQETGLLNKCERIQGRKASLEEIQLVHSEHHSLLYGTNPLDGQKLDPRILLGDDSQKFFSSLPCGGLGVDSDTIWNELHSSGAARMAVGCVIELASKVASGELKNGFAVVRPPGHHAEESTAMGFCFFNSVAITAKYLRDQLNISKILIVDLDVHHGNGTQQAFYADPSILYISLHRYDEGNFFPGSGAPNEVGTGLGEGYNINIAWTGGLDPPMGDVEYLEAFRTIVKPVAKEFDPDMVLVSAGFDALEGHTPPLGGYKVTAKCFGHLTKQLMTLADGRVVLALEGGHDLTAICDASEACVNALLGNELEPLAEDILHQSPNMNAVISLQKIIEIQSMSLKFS
Chain of Programmed cell death 1 ligand 1 (Mus musculus) (Q9EP73 whole entry): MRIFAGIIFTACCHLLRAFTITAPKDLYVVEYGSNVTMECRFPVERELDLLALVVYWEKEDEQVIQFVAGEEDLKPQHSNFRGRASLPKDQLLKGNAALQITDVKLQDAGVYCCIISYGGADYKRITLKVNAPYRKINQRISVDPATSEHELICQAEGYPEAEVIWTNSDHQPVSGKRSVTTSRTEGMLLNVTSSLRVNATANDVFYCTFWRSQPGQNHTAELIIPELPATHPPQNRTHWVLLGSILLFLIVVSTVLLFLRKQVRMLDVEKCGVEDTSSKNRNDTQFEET
Chain of Histone deacetylase 2 (Q92769 whole entry): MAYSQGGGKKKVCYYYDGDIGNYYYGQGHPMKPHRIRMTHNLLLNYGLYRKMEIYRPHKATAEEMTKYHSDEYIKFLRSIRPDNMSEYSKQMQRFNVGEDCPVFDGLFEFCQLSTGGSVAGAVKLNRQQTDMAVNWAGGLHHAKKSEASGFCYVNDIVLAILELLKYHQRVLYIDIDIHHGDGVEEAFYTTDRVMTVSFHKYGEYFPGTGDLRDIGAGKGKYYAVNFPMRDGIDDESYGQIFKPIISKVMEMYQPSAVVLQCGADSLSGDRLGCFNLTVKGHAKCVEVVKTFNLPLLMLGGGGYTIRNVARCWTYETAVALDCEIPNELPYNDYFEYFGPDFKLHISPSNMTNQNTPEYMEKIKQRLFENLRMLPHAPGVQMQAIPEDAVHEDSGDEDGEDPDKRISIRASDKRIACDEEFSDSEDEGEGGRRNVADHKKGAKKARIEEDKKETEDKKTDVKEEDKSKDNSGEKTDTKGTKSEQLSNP
Chain of Histone deacetylase 1 (Q13547 whole entry): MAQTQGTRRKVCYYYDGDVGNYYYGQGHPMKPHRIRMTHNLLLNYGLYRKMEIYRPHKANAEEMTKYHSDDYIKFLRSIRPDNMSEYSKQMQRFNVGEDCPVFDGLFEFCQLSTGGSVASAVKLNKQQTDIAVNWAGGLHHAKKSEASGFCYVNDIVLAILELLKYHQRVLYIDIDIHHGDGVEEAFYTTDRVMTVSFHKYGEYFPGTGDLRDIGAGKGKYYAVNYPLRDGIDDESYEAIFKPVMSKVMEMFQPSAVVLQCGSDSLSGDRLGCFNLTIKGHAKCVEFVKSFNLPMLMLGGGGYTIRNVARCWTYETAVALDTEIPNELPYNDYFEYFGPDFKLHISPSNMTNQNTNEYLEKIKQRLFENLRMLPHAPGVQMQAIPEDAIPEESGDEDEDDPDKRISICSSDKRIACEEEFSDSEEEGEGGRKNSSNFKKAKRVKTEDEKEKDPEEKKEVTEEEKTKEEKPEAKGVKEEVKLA

VRT(t) [3]: 0.641 hr2
half-life [4]: 2.03 h
AUC(0-t) at 12 h [5]: 7830 ng·h/mL
AUC(0-t) at 12 h [9]: 857 ng·h/mL
IC50 (Histone deacetylase 1): 6.8 µM
AUC(0-inf) [11]: 857 ng·h/mL
AUMC [14]: 630.022 hr.hr.ug/L
IC50 (Histone deacetylase 9): > 10 µM
CL/F [18]: 41.1 mL/min/kg
Retention_time [20]: 10.16 min
IC50 (Histone deacetylase 2): 9.77 µM
VRT [27]: 12.987 hr2
Cmax [29]: 1390 ng/mL
Compound: CCCNNC(=O)c1ccc(Cn2c3ccccc3c3c(-c4ccccn4)nc4ccccc4c32)cc1
Activity [1]: Non-toxic
Activity (B16-F10 [2]): 60.7%
Activity (B16-F10 [6]): inactive
Activity (4T1 [7]): Active
Activity (Mus musculus [8]): 22%
Activity (B16-F10 [10]): Active
Activity [12]: Non-toxic
Activity (4T1 [13]): Active; Comparable To The Effect Of Olaparib
Activity (4T1 [15]): inactive
Activity (4T1 [16]): Active
Activity (B16-F10 [17]): Active
inhibition in vivo at 50 mg/kg (B16-F10 [19]): 67%
Activity (4T1 [21]): Active
TGI (4T1 [22]): 91%
Activity (Mus musculus [23]): 25%
Activity (Mus musculus [24]): inactive
Activity [25]: Not active; Ctsb-Mediated Lysosomal Degradation Mechanism Is Observed
Activity [26]: Non-toxic
Activity (Mus musculus [28]): Active
